We go through 20 compounds from patent publication US11312719B2, “9-substituted amino triazolo quinazoline derivatives as adenosine receptor antagonists, pharmaceutical compositions and their use” (Merck Sharp & Dohme Corp., priority 2018, dated 2022).

SMILES strings stand for the structures.

The target of one assay is human A2A receptors (Homo sapiens (Human), UniProt P29274). Put plainly: A2A antagonism in cAMP cell-based assay (LANCE cAMP, HEK293). The note with it: HEK293 cells expressing human A2A receptor. A digest of the protocol:
(§1)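 HEK293 cells expressing human A2A or A2B, in HBSS/5 mM HEPES/200 nM rolipram, were preincubated with compound (0.5–10,000 nM, 0.25% DMSO) 30 min at 37° C. Adenosine was then added from 300 nM (A2A) or 600 nM (A2B) solution for 30 min.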
Background: In TR-FRET formats the signal depends on donor and acceptor labels being close together.

A further assay deals with human A2B receptors (Homo sapiens (Human), UniProt P29275). Put plainly: A2B antagonism in cAMP cell-based assay (LANCE cAMP, HEK293). The following applies: HEK293 cells expressing human A2B receptor; for A2B cAMP % Inh. @10000 nM: at 10000 nM. A digest of the protocol: as §1
Chain of human A2B receptors (P29275 whole entry): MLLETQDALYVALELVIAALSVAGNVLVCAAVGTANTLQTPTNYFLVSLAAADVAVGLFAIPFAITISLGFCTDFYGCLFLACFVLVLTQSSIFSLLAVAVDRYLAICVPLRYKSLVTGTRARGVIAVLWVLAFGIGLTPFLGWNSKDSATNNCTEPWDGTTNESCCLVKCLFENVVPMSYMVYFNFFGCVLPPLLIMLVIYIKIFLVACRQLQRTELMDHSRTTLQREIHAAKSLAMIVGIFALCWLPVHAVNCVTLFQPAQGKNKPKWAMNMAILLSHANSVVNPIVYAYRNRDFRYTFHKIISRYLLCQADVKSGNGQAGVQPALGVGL

Chain of human A2A receptors (P29274 whole entry): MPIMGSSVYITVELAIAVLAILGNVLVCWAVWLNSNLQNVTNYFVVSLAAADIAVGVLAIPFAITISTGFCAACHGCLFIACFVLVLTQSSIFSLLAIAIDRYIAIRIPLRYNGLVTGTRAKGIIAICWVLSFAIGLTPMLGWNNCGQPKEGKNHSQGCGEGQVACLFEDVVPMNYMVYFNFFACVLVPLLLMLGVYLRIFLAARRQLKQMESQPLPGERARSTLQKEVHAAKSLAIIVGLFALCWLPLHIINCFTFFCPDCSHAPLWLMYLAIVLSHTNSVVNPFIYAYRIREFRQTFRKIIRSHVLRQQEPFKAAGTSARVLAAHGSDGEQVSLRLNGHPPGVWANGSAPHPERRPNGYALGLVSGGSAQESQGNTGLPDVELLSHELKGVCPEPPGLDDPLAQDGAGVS

What is called IC50 is the concentration needed to halve the response being measured. As for `COc1cc2nc(N)n3nc([C@@H]4CCCN(c5cnn(C(C)C(C)O)c5)C4)nc3c2cc1F` (single isomer, unassigned) [Example 199, (2R,3S or 2S,3R)-3-(4-((R)-3-(5-amino-9-fluoro-8-methoxy-[1,2,4]triazolo[1,5-c]quinazolin-2-yl)piperidin-1-yl)-1H-pyrazol-1-yl)butan-2-ol], the half-maximal inhibitory concentration (IC50) on human A2A receptors came out at 2.5 nM; against human A2B receptors, 97.5 nM.
Taken in the same sequence, the figures for `COc1cc2nc(N)n3nc([C@@H]4CCCN(c5cnn(C(C)C(C)O)c5)C4)nc3c2cc1F` (single isomer, unassigned) [Example 200, (2S,3R or 2R,3S)-3-(4-((R)-3-(5-amino-9-fluoro-8-methoxy-[1,2,4]triazolo[1,5-c]quinazolin-2-yl)piperidin-1-yl)-1H-pyrazol-1-yl)butan-2-ol] were 2.5 nM and 102 nM.
Taken in the same sequence, the figures for `COc1cc(F)cc2c1nc(N)n1nc([C@@H]3CCCN(c4cnn(C(C)C(C)O)c4)C3)nc21` (single isomer, unassigned) [Example 201, (2R,3S or 2S,3R)-3-(4-((R)-3-(5-amino-9-fluoro-7-methoxy-[1,2,4]triazolo[1,5-c]quinazolin-2-yl)piperidin-1-yl)-1H-pyrazol-1-yl)butan-2-ol] were 1.9 nM and 38.4 nM.
For `COc1cc(F)cc2c1nc(N)n1nc([C@@H]3CCCN(c4cnn(C(C)C(C)O)c4)C3)nc21` (single isomer, unassigned) [Example 202, (2S,3R or 2R,3S)-3-(4-((R)-3-(5-amino-9-fluoro-7-methoxy-[1,2,4]triazolo[1,5-c]quinazolin-2-yl)piperidin-1-yl)-1H-pyrazol-1-yl)butan-2-ol], the IC50 was 1.4 nM at human A2A receptors and 62.4 nM against human A2B receptors.
For `CC(O)C(C)n1cc(N2CCC[C@@H](c3nc4c5cc(F)cc(F)c5nc(N)n4n3)C2)cn1` (single isomer, unassigned) [Example 203, (2R,3S or 2S,3R)-3-(4-((R)-3-(5-amino-7,9-difluoro-[1,2,4]triazolo[1,5-c]quinazolin-2-yl)piperidin-1-yl)-1H-pyrazol-1-yl)butan-2-ol] the same measures were 7.7 nM and 53.2 nM.
Taken in the same sequence, the figures for `CC(O)C(C)n1cc(N2CCC[C@@H](c3nc4c5cc(F)cc(F)c5nc(N)n4n3)C2)cn1` (single isomer, unassigned) [Example 204, (2S,3R or 2R,3S)-3-(4-((R)-3-(5-amino-7,9-difluoro-[1,2,4]triazolo[1,5-c]quinazolin-2-yl)piperidin-1-yl)-1H-pyrazol-1-yl)butan-2-ol] were 7.8 nM and 87.7 nM.
As for `COc1cc(F)cc2c1nc(N)n1nc(C3CC(C)CN(c4cn(C(C)(C)C(C)O)nc4C)C3)nc21` (single isomer, unassigned) [Example 205, (R or S)-3-(4-((3R,5S or 3S,5R)-3-(5-amino-9-fluoro-7-methoxy-[1,2,4]triazolo[1,5-c]quinazolin-2-yl)-5-methylpiperidin-1-yl)-3-methyl-1H-pyrazol-1-yl)-3-methylbutan-2-ol], the IC50 against human A2A receptors is 7 nM; at human A2B receptors, 1150 nM.
For `COc1cc(F)cc2c1nc(N)n1nc(C3CC(C)CN(c4cn(C(C)(C)C(C)O)nc4C)C3)nc21` (single isomer, unassigned) [Example 206, (S or R)-3-(4-((3R,5S or 3S,5R)-3-(5-amino-9-fluoro-7-methoxy-[1,2,4]triazolo[1,5-c]quinazolin-2-yl)-5-methylpiperidin-1-yl)-3-methyl-1H-pyrazol-1-yl)-3-methylbutan-2-ol] the same measures were 13 nM and 4310 nM.
Take `COc1cc(F)cc2c1nc(N)n1nc(C3CC(C)CN(c4cn(C(C)(C)C(C)O)nc4C)C3)nc21` (single isomer, unassigned) [Example 207, (R or S)-3-(4-((3S,5R or 3R,5S)-3-(5-amino-9-fluoro-7-methoxy-[1,2,4]triazolo[1,5-c]quinazolin-2-yl)-5-methylpiperidin-1-yl)-3-methyl-1H-pyrazol-1-yl)-3-methylbutan-2-ol]: the IC50 was 0.9 nM against human A2A receptors and 10.4 nM against human A2B receptors.
For `COc1cc2nc(N)n3nc([C@@H]4C[C@H](C)CN(c5cn([C@@H](C)[C@H](C)O)nc5C)C4)nc3c2cc1F` (single isomer, unassigned) [Example 208, (2S,3S or 2R,3R)-3-(4-((3R,5S or 3S,5R)-3-(5-amino-9-fluoro-8-methoxy-[1,2,4]triazolo[1,5-c]quinazolin-2-yl)-5-methylpiperidin-1-yl)-3-methyl-1H-pyrazol-1-yl)butan-2-ol] the same measures were 0.7 nM and 2800 nM.
Regarding `COc1cc2nc(N)n3nc([C@@H]4C[C@H](C)CN(c5cn([C@H](C)[C@@H](C)O)nc5C)C4)nc3c2cc1F` (single isomer, unassigned) [Example 209, (2R,3R or 2S,3S)-3-(4-((3R,5S or 3S,5R)-3-(5-amino-9-fluoro-8-methoxy-[1,2,4]triazolo[1,5-c]quinazolin-2-yl)-5-methylpiperidin-1-yl)-3-methyl-1H-pyrazol-1-yl)butan-2-ol], the figures for the IC50 against human A2A receptors and at human A2B receptors were 0.7 nM and 635 nM, respectively.
As for `COc1cc2nc(N)n3nc([C@H]4C[C@@H](C)CN(c5cn([C@H](C)[C@@H](C)O)nc5C)C4)nc3c2cc1F` (single isomer, unassigned) [Example 210, (2R,3R or 2S,3S)-3-(4-((3S,5R or 3R,5S)-3-(5-amino-9-fluoro-8-methoxy-[1,2,4]triazolo[1,5-c]quinazolin-2-yl)-5-methylpiperidin-1-yl)-3-methyl-1H-pyrazol-1-yl)butan-2-ol], the IC50 at human A2A receptors is 16.2 nM. Further, the “A2B cAMP % Inh. @10000 nM” value at human A2B receptors is 35% Inh.
As for `COc1cc2nc(N)n3nc([C@H]4C[C@@H](C)CN(c5cn([C@@H](C)[C@H](C)O)nc5C)C4)nc3c2cc1F` (single isomer, unassigned) [Example 211, (2S,3S or 2R,3R)-3-(4-((3S,5R or 3R,5S)-3-(5-amino-9-fluoro-8-methoxy-[1,2,4]triazolo[1,5-c]quinazolin-2-yl)-5-methylpiperidin-1-yl)-3-methyl-1H-pyrazol-1-yl)butan-2-ol], the IC50 on human A2A receptors is 89.3 nM; on human A2B receptors, over 10000 nM.
On to `Cc1nn(C(C)C(C)O)cc1N1CC(C)CC(c2nc3c4cc(F)cc(F)c4nc(N)n3n2)C1` (single isomer, unassigned) [Example 212, (2S,3S or 2R,3R)-3-(4-((3R,5S or 3S,5R)-3-(5-amino-7,9-difluoro-[1,2,4]triazolo[1,5-c]quinazolin-2-yl)-5-methylpiperidin-1-yl)-3-methyl-1H-pyrazol-1-yl)butan-2-ol], for which it took 122 nM to reach half-maximal inhibition at human A2A receptors (IC50). Besides, the “A2B cAMP % Inh. @10000 nM” value at human A2B receptors is listed as 27% Inh.
For `Cc1nn(C(C)C(C)O)cc1N1CC(C)CC(c2nc3c4cc(F)cc(F)c4nc(N)n3n2)C1` (single isomer, unassigned) [Example 213, (2R,3R or 2S,3S)-3-(4-((3R,5S or 3S,5R)-3-(5-amino-7,9-difluoro-[1,2,4]triazolo[1,5-c]quinazolin-2-yl)-5-methylpiperidin-1-yl)-3-methyl-1H-pyrazol-1-yl)butan-2-ol], the IC50 against human A2A receptors is 331 nM; at human A2B receptors, over 10000 nM.
Taken in the same sequence, the figures for `Cc1nn(C(C)C(C)O)cc1N1CC(C)CC(c2nc3c4cc(F)cc(F)c4nc(N)n3n2)C1` (single isomer, unassigned) [Example 214, (2R,3R or 2S,3S)-3-(4-((3S,5R or 3R,5S)-3-(5-amino-7,9-difluoro-[1,2,4]triazolo[1,5-c]quinazolin-2-yl)-5-methylpiperidin-1-yl)-3-methyl-1H-pyrazol-1-yl)butan-2-ol] were 0.5 nM and 34.1 nM.
Take `Cc1nn(C(C)C(C)O)cc1N1CC(C)CC(c2nc3c4cc(F)cc(F)c4nc(N)n3n2)C1` (single isomer, unassigned) [Example 215, (2S,3S or 2R,3R)-3-(4-((3S,5R or 3R,5S)-3-(5-amino-7,9-difluoro-[1,2,4]triazolo[1,5-c]quinazolin-2-yl)-5-methylpiperidin-1-yl)-3-methyl-1H-pyrazol-1-yl)butan-2-ol]: the IC50 was 0.4 nM at human A2A receptors and 27.5 nM at human A2B receptors.
For `Cc1c(N2CC(C)CC(c3nc4c5cc(F)cc(F)c5nc(N)n4n3)C2)cnn1C(C)C(C)O` (single isomer, unassigned) [Example 216, (2S,3S or 2R,3R)-3-(4-((3R,5S or 3S,5R)-3-(5-amino-7,9-difluoro-[1,2,4]triazolo[1,5-c]quinazolin-2-yl)-5-methylpiperidin-1-yl)-5-methyl-1H-pyrazol-1-yl)butan-2-ol] the same measures were 1 nM and 160 nM.
Take `Cc1c(N2CC(C)CC(c3nc4c5cc(F)cc(F)c5nc(N)n4n3)C2)cnn1C(C)C(C)O` (single isomer, unassigned) [Example 217, (2R,3R or 2S,3S)-3-(4-((3R,5S or 3S,5R)-3-(5-amino-7,9-difluoro-[1,2,4]triazolo[1,5-c]quinazolin-2-yl)-5-methylpiperidin-1-yl)-5-methyl-1H-pyrazol-1-yl)butan-2-ol]: the IC50 against human A2A receptors amounted to 1.1 nM; against human A2B receptors, 161 nM.
Taken in the same sequence, the figures for `Cc1c(N2CC(C)CC(c3nc4c5cc(F)cc(F)c5nc(N)n4n3)C2)cnn1C(C)C(C)O` (single isomer, unassigned) [Example 218, (2R,3R or 2S,3S)-3-(4-((3S,5R or 3R,5S)-3-(5-amino-7,9-difluoro-[1,2,4]triazolo[1,5-c]quinazolin-2-yl)-5-methylpiperidin-1-yl)-5-methyl-1H-pyrazol-1-yl)butan-2-ol] were 236 nM and 5780 nM.
